Measured values reported in PubChem BioAssay (NCI).
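Test compounds were applied to cells in 96-well plates for 48 hours at 5 doses. GI50 = concentration required for 50% inhibition of growth. TGI: total growth inhibition.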

Experiments:
Experiment in all cases: NCI anticancer screen, dose series, 48 h
OVCAR-3 ovarian = test system: OVCAR-3 ovarian
SNB-75 CNS = test system: SNB-75 CNS
HOP-92 NSCLC = test system: HOP-92 NSCLC
HT29 colon = test system: HT29 colon
LOX IMVI melanoma = test system: LOX IMVI melanoma
CCRF-CEM leukemia = test system: CCRF-CEM leukemia
UACC-257 melanoma = test system: UACC-257 melanoma
NCI-H460 lung = test system: NCI-H460 lung
MOLT-4 leukemia = test system: MOLT-4 leukemia
SNB-19 CNS = test system: SNB-19 CNS
IGROV1 ovarian = test system: IGROV1 ovarian
CAKI-1 renal = test system: CAKI-1 renal
NCI-H226 lung = test system: NCI-H226 lung
DU-145 prostate = test system: DU-145 prostate
UO-31 renal = test system: UO-31 renal
UACC-62 melanoma = test system: UACC-62 melanoma
M14 melanoma = test system: M14 melanoma
ACHN renal = test system: ACHN renal
KM12 colon = test system: KM12 colon
COLO 205 colon = test system: COLO 205 colon
RPMI-8226 leukemia = test system: RPMI-8226 leukemia
RXF 393 renal = test system: RXF 393 renal
HCC-2998 colon = test system: HCC-2998 colon
T-47D breast = test system: T-47D breast
SF-539 CNS = test system: SF-539 CNS
SF-295 CNS = test system: SF-295 CNS
HL-60(TB) leukemia = test system: HL-60(TB) leukemia
A549 NSCLC = test system: A549 NSCLC
BT-549 breast = test system: BT-549 breast
786-0 renal = test system: 786-0 renal
MDA-MB-231 breast = test system: MDA-MB-231 breast
SN12C renal = test system: SN12C renal
HS 578T breast = test system: HS 578T breast
NCI-H23 lung = test system: NCI-H23 lung
HOP-62 NSCLC = test system: HOP-62 NSCLC
SK-OV-3 ovarian = test system: SK-OV-3 ovarian
SF-268 CNS = test system: SF-268 CNS
NCI/ADR-RES ovarian = test system: NCI/ADR-RES ovarian
SK-MEL-5 melanoma = test system: SK-MEL-5 melanoma
OVCAR-8 ovarian = test system: OVCAR-8 ovarian
HCT-116 colon = test system: HCT-116 colon
EKVX NSCLC = test system: EKVX NSCLC
PC-3 prostate = test system: PC-3 prostate
K-562 leukemia = test system: K-562 leukemia
OVCAR-5 ovarian = test system: OVCAR-5 ovarian
SK-MEL-2 melanoma = test system: SK-MEL-2 melanoma
SW-620 colon = test system: SW-620 colon
A498 renal = test system: A498 renal
NCI-H522 lung = test system: NCI-H522 lung
OVCAR-4 ovarian = test system: OVCAR-4 ovarian
SK-MEL-28 melanoma = test system: SK-MEL-28 melanoma
TK-10 renal = test system: TK-10 renal
MALME-3M melanoma = test system: MALME-3M melanoma
U251 CNS = test system: U251 CNS
MDA-MB-435 = test system: MDA-MB-435
SR leukemia = test system: SR leukemia
HCT-15 colon = test system: HCT-15 colon
MCF7 breast = test system: MCF7 breast

Molecule `O=C(NCc1cn(Cc2cccc(Oc3ccccc3)c2)nn1)c1cccnc1Nc1ccc(F)cc1` has a GI50 (OVCAR-3 ovarian) of 17.7 µM, a TGI (OVCAR-3 ovarian) greater than 100 µM and a GI50 (SNB-75 CNS) of 3.81 µM. For the same molecule, the TGI (SNB-75 CNS) was 21.3 µM, the GI50 (HOP-92 NSCLC) was 10.7 µM and the TGI (HOP-92 NSCLC) was 43.5 µM. For the same molecule, the GI50 (HT29 colon) was 5.6 µM, the TGI (HT29 colon) was greater than 100 µM and the GI50 (LOX IMVI melanoma) was 61.3 µM. It also gave a TGI (LOX IMVI melanoma) greater than 100 µM, a GI50 (CCRF-CEM leukemia) greater than 100 µM and a TGI (CCRF-CEM leukemia) greater than 100 µM. The GI50 (UACC-257 melanoma) was 6.87 µM, the TGI (UACC-257 melanoma) was greater than 100 µM and the GI50 (NCI-H460 lung) was 5.25 µM. The TGI (NCI-H460 lung) was greater than 100 µM, the GI50 (MOLT-4 leukemia) was greater than 100 µM and the TGI (MOLT-4 leukemia) was greater than 100 µM. For the same molecule, the GI50 (SNB-19 CNS) was 20.7 µM, the TGI (SNB-19 CNS) was greater than 100 µM and the GI50 (IGROV1 ovarian) was 30.7 µM. For the same molecule, the TGI (IGROV1 ovarian) was greater than 100 µM, the GI50 (CAKI-1 renal) was 64.2 µM and the TGI (CAKI-1 renal) was greater than 100 µM. The GI50 (NCI-H226 lung) was 38.6 µM, the TGI (NCI-H226 lung) was greater than 100 µM and the GI50 (DU-145 prostate) was 8.58 µM. For the same molecule, the TGI (DU-145 prostate) was greater than 100 µM, the GI50 (UO-31 renal) was 86.3 µM and the TGI (UO-31 renal) was greater than 100 µM. It also gave a GI50 (UACC-62 melanoma) of 6.51 µM, a TGI (UACC-62 melanoma) greater than 100 µM and a GI50 (M14 melanoma) of 13.7 µM. The TGI (M14 melanoma) was greater than 100 µM, the GI50 (ACHN renal) was 11 µM and the TGI (ACHN renal) was greater than 100 µM. It also gave a GI50 (KM12 colon) of 5.61 µM, a TGI (KM12 colon) greater than 100 µM and a GI50 (COLO 205 colon) of 6.22 µM. It also gave a TGI (COLO 205 colon) greater than 100 µM, a GI50 (RPMI-8226 leukemia) greater than 100 µM and a TGI (RPMI-8226 leukemia) greater than 100 µM. It also gave a GI50 (RXF 393 renal) of 5.69 µM, a TGI (RXF 393 renal) of 42 µM and a GI50 (HCC-2998 colon) greater than 100 µM. For the same molecule, the TGI (HCC-2998 colon) was greater than 100 µM, the GI50 (T-47D breast) was 21.4 µM and the TGI (T-47D breast) was greater than 100 µM. It also gave a GI50 (SF-539 CNS) of 15.1 µM, a TGI (SF-539 CNS) greater than 100 µM and a GI50 (SF-295 CNS) of 5.66 µM. The TGI (SF-295 CNS) was 47.6 µM, the GI50 (HL-60(TB) leukemia) was greater than 100 µM and the TGI (HL-60(TB) leukemia) was greater than 100 µM. It also gave a GI50 (A549 NSCLC) of 6.11 µM, a TGI (A549 NSCLC) greater than 100 µM and a GI50 (BT-549 breast) of 45.6 µM. It also gave a TGI (BT-549 breast) greater than 100 µM, a GI50 (786-0 renal) of 23.2 µM and a TGI (786-0 renal) greater than 100 µM. The GI50 (MDA-MB-231 breast) was 14.5 µM, the TGI (MDA-MB-231 breast) was greater than 100 µM and the GI50 (SN12C renal) was 52.6 µM. For the same molecule, the TGI (SN12C renal) was greater than 100 µM, the GI50 (HS 578T breast) was 30.9 µM and the TGI (HS 578T breast) was greater than 100 µM. For the same molecule, the GI50 (NCI-H23 lung) was 52.1 µM, the TGI (NCI-H23 lung) was greater than 100 µM and the GI50 (HOP-62 NSCLC) was 6.02 µM. The TGI (HOP-62 NSCLC) was 32.5 µM, the GI50 (SK-OV-3 ovarian) was 5.94 µM and the TGI (SK-OV-3 ovarian) was 36.1 µM. It also gave a GI50 (SF-268 CNS) of 21 µM, a TGI (SF-268 CNS) greater than 100 µM and a GI50 (NCI/ADR-RES ovarian) of 14 µM. It also gave a TGI (NCI/ADR-RES ovarian) greater than 100 µM, a GI50 (SK-MEL-5 melanoma) of 4.48 µM and a TGI (SK-MEL-5 melanoma) of 38.8 µM. For the same molecule, the GI50 (OVCAR-8 ovarian) was 7.44 µM, the TGI (OVCAR-8 ovarian) was greater than 100 µM and the GI50 (HCT-116 colon) was 5.02 µM. For the same molecule, the TGI (HCT-116 colon) was greater than 100 µM, the GI50 (EKVX NSCLC) was 25.3 µM and the TGI (EKVX NSCLC) was greater than 100 µM. For the same molecule, the GI50 (PC-3 prostate) was 20.4 µM, the TGI (PC-3 prostate) was greater than 100 µM and the GI50 (K-562 leukemia) was greater than 100 µM. It also gave a TGI (K-562 leukemia) greater than 100 µM, a GI50 (OVCAR-5 ovarian) greater than 100 µM and a TGI (OVCAR-5 ovarian) greater than 100 µM. It also gave a GI50 (SK-MEL-2 melanoma) of 34.2 µM, a TGI (SK-MEL-2 melanoma) greater than 100 µM and a GI50 (SW-620 colon) of 6.58 µM. For the same molecule, the TGI (SW-620 colon) was greater than 100 µM, the GI50 (A498 renal) was 13.7 µM and the TGI (A498 renal) was 95.1 µM. It also gave a GI50 (NCI-H522 lung) of 10.8 µM, a TGI (NCI-H522 lung) greater than 100 µM and a GI50 (OVCAR-4 ovarian) of 23.4 µM. It also gave a TGI (OVCAR-4 ovarian) greater than 100 µM, a GI50 (SK-MEL-28 melanoma) of 7.98 µM and a TGI (SK-MEL-28 melanoma) greater than 100 µM. For the same molecule, the GI50 (TK-10 renal) was 24.5 µM, the TGI (TK-10 renal) was greater than 100 µM and the GI50 (MALME-3M melanoma) was 15.1 µM. The TGI (MALME-3M melanoma) was greater than 100 µM, the GI50 (U251 CNS) was 7.12 µM and the TGI (U251 CNS) was greater than 100 µM.

`COCCN(C(=O)c1ccccc1)C1CCC2(SCCS2)c2[nH]c3ccccc3c21` (centres undefined) gave a TGI (OVCAR-3 ovarian) greater than 100 µM, a TGI (MDA-MB-435) of 69.6 µM and a TGI (SR leukemia) greater than 100 µM. For the same molecule, the TGI (SNB-75 CNS) was greater than 100 µM, the TGI (HOP-92 NSCLC) was 78 µM and the TGI (HT29 colon) was greater than 100 µM. For the same molecule, the TGI (LOX IMVI melanoma) was greater than 100 µM, the TGI (CCRF-CEM leukemia) was greater than 100 µM and the TGI (UACC-257 melanoma) was greater than 100 µM. For the same molecule, the TGI (NCI-H460 lung) was greater than 100 µM, the TGI (MOLT-4 leukemia) was 69.4 µM and the TGI (SNB-19 CNS) was greater than 100 µM. It also gave a TGI (IGROV1 ovarian) greater than 100 µM, a TGI (CAKI-1 renal) greater than 100 µM and a TGI (NCI-H226 lung) greater than 100 µM. It also gave a TGI (DU-145 prostate) greater than 100 µM, a TGI (UO-31 renal) greater than 100 µM and a TGI (ACHN renal) greater than 100 µM. The TGI (KM12 colon) was greater than 100 µM, the TGI (COLO 205 colon) was greater than 100 µM and the TGI (RPMI-8226 leukemia) was 61.8 µM. It also gave a TGI (RXF 393 renal) of 87.7 µM, a TGI (HCC-2998 colon) greater than 100 µM and a TGI (SF-539 CNS) greater than 100 µM. It also gave a TGI (SF-295 CNS) greater than 100 µM, a TGI (HL-60(TB) leukemia) of 55.2 µM and a TGI (A549 NSCLC) of 68.2 µM. It also gave a TGI (786-0 renal) greater than 100 µM, a TGI (MDA-MB-231 breast) greater than 100 µM and a TGI (SN12C renal) greater than 100 µM. For the same molecule, the TGI (HS 578T breast) was greater than 100 µM, the TGI (NCI-H23 lung) was greater than 100 µM and the TGI (HOP-62 NSCLC) was greater than 100 µM. The TGI (HCT-15 colon) was greater than 100 µM, the TGI (SF-268 CNS) was greater than 100 µM and the TGI (NCI/ADR-RES ovarian) was greater than 100 µM. It also gave a TGI (SK-MEL-5 melanoma) greater than 100 µM, a TGI (OVCAR-8 ovarian) greater than 100 µM and a TGI (HCT-116 colon) greater than 100 µM. For the same molecule, the TGI (EKVX NSCLC) was greater than 100 µM, the TGI (PC-3 prostate) was 59.3 µM and the TGI (MCF7 breast) was greater than 100 µM. It also gave a TGI (K-562 leukemia) greater than 100 µM, a TGI (OVCAR-5 ovarian) greater than 100 µM and a TGI (SW-620 colon) greater than 100 µM. It also gave a TGI (A498 renal) greater than 100 µM, a TGI (NCI-H522 lung) of 98.8 µM and a TGI (SK-MEL-28 melanoma) greater than 100 µM. The TGI (TK-10 renal) was greater than 100 µM, the TGI (MALME-3M melanoma) was greater than 100 µM and the TGI (U251 CNS) was greater than 100 µM.
